The values that follow come from patent US8232401B2 (Japan Tobacco Inc., priority 2002, dated 2012).

Structures are written as SMILES.

In general, IC50 refers to the concentration that gives 50% inhibition.

The experiment addresses T1, HIV integrase (Human immunodeficiency virus type 1 group M subtype B, UniProt P12497, F1332H).
T1 construct: HIV integrase full length gene; made in house; host or cells: Escherichia coli BL21(DE3)
Kind of experiment: Determination of enzyme (HIV integrase) inhibitory activity (strand transfer, microtiter plate, absorbance at 450 nm). The class given is biochemical, HIV (Human Immunodeficiency Virus (type 1)). To be noted: recombinant HIV integrase (F185H) expressed in E. coli; donor DNA on streptavidin plate, digoxigenin target DNA; 37° C. The procedure: The following explains evaluation methods of the HIV integrase inhibitory activity of the compound of the present invention.
(i) Construction of Recombinant Integrase Gene Expression System
(ii) Production and Purification of Integrase Protein
Escherichia coli recombinant BL21(DE3) transformed with plasmid pET21a-IN-F185H obtained in (i) was shake cultured at 30° C. in a liquid medium containing ampicillin. When the culture reached the logarithmic growth phase, isopropyl-β-D-thiogalactopyranoside was added to promote expression of integrase gene. The culture was continued for 3 hrs to promote accumulation of the integrase protein. The recombinant E. coli was collected in pellets by centrifugal separation and preserved at −80° C.
The E. coli was suspended in Lysis buffer (20 mM HEPES (pH 7.5), 5 mM DTT, 10 mM CHAPS, 10% glycerol) containing 1M sodium chloride and subjected to repeat pressurization and depressurization for rupture, and centrifugal separation at 4° C., 40,000×g, 60 min to recover a water-soluble fraction (supernatant). This was diluted 10-fold with Lysis buffer free of sodium chloride, mixed with SP-Sepharose (Pharmacia Corporation) and stirred at 4° C. for 60 min to allow adsorption of integrase protein to the resin. The resin was washed with Lysis buffer containing 100 mM sodium chloride and the integrase protein was eluted with Lysis buffer containing 1M sodium chloride.
The eluted integrase protein solution was applied to a Superdex 75 (Pharmacia Corporation) column for gel filtration. The protein was eluted with Lysis buffer containing 1M sodium chloride.
The obtained fractions of the integrate protein were collected and preserved at −80° C.
(iii) Preparation of DNA Solution
The following DNA synthesized by Greiner was dissolved in TE buffer (10 mM Tris-hydrochloric acid (pH 8.0), 1 mM EDTA) and mixed with donor DNA, target DNA, each complementary strand (+ and − strands) to 1 μM. The mixture was heated at 95° C. for 5 min, 80° C. for 10 min, 70° C. for 10 min, 60° C. for 10 min, 50° C. for 10 min and 40° C. for 10 min and preserved at 25° C. to give a double stranded DNA, which was used for the test. Donor DNA (− strand having biotin attached to the 5′ terminal)
(iv) Determination of Enzyme (HIV Integrase) Inhibitory activity
The donor DNA was diluted with TE buffer to 10 nM, of which 50 μl was added to each well of streptavidin-coated microtiter plate (Roche) and allowed to adsorb at 37° C. for 60 min. The DNA was washed with phosphate buffer (Dulbecco PBS, Sanko Junyaku Co., Ltd.) containing 0.1% Tween 20 and phosphate buffer. Then, a reaction mixture (70 μl) having the following composition, a test substance (10 μl) diluted with the reaction mixture and […] integrase protein (10 μl) were added to each well and reacted at 37° C. for 60 min.
Then, 50 nM target DNA (1.0 μl) was added, reacted at 37° C. for 10 min and washed with phosphate buffer containing 0.1% Tween 20 to stop the reaction.
Then, 100 mU/ml peroxidase labeled anti-digoxigenin antibody solution (Roche, 100 μl) was added, and the mixture was reacted at 37° C. for 60 min, followed by washing with phosphate buffer containing 0.1% Tween 20.
A peroxidase color solution (Bio Rad, 100 μl) was added and allowed to react at room temperature for 4 min. The color reaction was stopped by adding 1N sulfuric acid (100 μl). The absorbance at 450 nm was measured.
The HIV integrase inhibitory activity (IC50) of the compound of the present invention was calculated from the inhibition rate according to the following formula. […] Evaluation of Antiviral Activity
Regarding `CNc1cc(Cc2cccc(Cl)c2F)cc2c(=O)c(C(=O)O)cn(CCO)c12` [Example 3-48, 6-(3-Chloro-2-fluorobenzyl)-1-(2-hydroxyethyl)-8-methylamino-4-oxo-1,4-dihydroquinoline-3-carboxylic acid], the IC50 was 21 nM.

In the case of `CC(O)Cn1cc(C(=O)O)c(=O)c2cc(Cc3cccc(Cl)c3Cl)ccc21` (stereo not shown) [Example 1-30, 6-(2,3-Dichlorobenzyl)-1-(2-hydroxypropyl)-4-oxo-1,4-dihydroquinoline-3-carboxylic acid], the IC50 came out at 140 nM.

Turning to `CS(=O)(=O)Nn1cc(C(=O)O)c(=O)c2cc(Cc3cccc(Cl)c3Cl)ccc21` [Example 2-4, 6-(2,3-Dichlorobenzyl)-1-methanesulfonylamino-4-oxo-1,4-dihydroquinoline-3-carboxylic acid], the IC50 was 18 nM.

On to `O=C(O)c1cn(CCO)c2c(F)cc(Cc3cccc(Cl)c3Cl)cc2c1=O` [Example 1-2, 6-(2,3-dichlorobenzyl)-1,4-dihydro-8-fluoro-1-(2-hydroxyethyl)-4-oxo-3-quinolinecarboxylic acid], for which the IC50 was found to be 33 nM.

As to `O=C(O)c1cn(CCO)c2c(OCC3CCCCC3)cc(Cc3cccc(Cl)c3F)cc2c1=O` [Example 3-69, 6-(3-Chloro-2-fluorobenzyl)-8-cyclohexylmethoxy-1-(2-hydroxyethyl)-4-oxo-1,4-dihydroquinoline-3-carboxylic acid], the IC50 turned out to be 4.3 nM.

Regarding `CC(C)n1cc(C(=O)O)c(=O)c2cc(Cc3cccc(Cl)c3Cl)ccc21` [Example 1-8, 6-(2,3-Dichlorobenzyl)-1-isopropyl-4-oxo-1,4-dihydroquinoline-3-carboxylic acid], the IC50 was found to be 46 nM.

Regarding `NS(=O)(=O)Cn1cc(C(=O)O)c(=O)c2cc(Cc3c(F)cccc3Cl)ccc21` [Example 1-75, 6-(2-Chloro-6-fluorobenzyl)-1-sulfamoylmethyl-4-oxo-1,4-dihydroquinoline-3-carboxylic acid], the IC50 was determined as 16 nM.

For the compound `O=C(O)c1cn(CCO)c2ccc(Cc3cccc(-c4ccccc4)c3)cc2c1=O` [Example 1-88], the IC50 was found to be 450 nM.

`COc1cc(Cc2cccc(Cl)c2F)cc2c(=O)c(C(=O)O)cn([C@H](CO)C(C)(C)C)c12` [Example 4-34, (S)-6-(3-Chloro-2-fluorobenzyl)-1-[2,2-dimethyl-1-(hydroxymethyl)propyl]-8-methoxy-4-oxo-1,4-dihydroquinoline-3-carboxylic acid]: the IC50 is 3.9 nM.

On to `O=C(O)c1cn(CCn2ccnc2)c2ccc(Cc3cccc(Cl)c3Cl)cc2c1=O` [Example 1-4, 6-(2,3-Dichlorobenzyl)-1-(2-imidazol-1-ylethyl)-4-oxo-1,4-dihydroquinoline-3-carboxylic acid], for which the IC50 turned out to be 240 nM.

As to `CC(=O)NCCn1cc(C(=O)O)c(=O)c2cc(Cc3cccc(Cl)c3Cl)ccc21` [Example 1-48, 1-(2-Acetylaminoethyl)-6-(2,3-dichlorobenzyl)-4-oxo-1,4-dihydroquinoline-3-carboxylic acid], the IC50 was found to be 380 nM.

With `O=C(O)c1cn(CCO)c2ccc(Cc3cccc4ccccc34)cc2c1=O` [Example 1-11, 1-(2-Hydroxyethyl)-6-naphthalen-1-ylmethyl-4-oxo-1,4-dihydroquinoline-3-carboxylic acid], the IC50 was found to be 180 nM.

As to `O=C(O)c1cn(CC(O)CO)c2ccc(Cc3cccc(Cl)c3Cl)cc2c1=O` (stereo not shown) [Example 1-74, 6-(2,3-Dichlorobenzyl)-1-(2,3-Dihydroxypropyl)-4-oxo-1,4-dihydroquinoline-3-carboxylic acid], the IC50 stood at 98 nM.

For the compound `O=C(O)CCn1cc(C(=O)O)c(=O)c2cc(Cc3cccc(Cl)c3Cl)ccc21` [Example 1-10, 1-(2-Carboxyethyl)-6-(2,3-dichlorobenzyl)-4-oxo-1,4-dihydroquinoline-3-carboxylic acid], the IC50 came out at 72 nM.

Consider `CNC(=O)Cn1cc(C(=O)O)c(=O)c2cc(Cc3cccc(Cl)c3Cl)ccc21` [Example 1-6, 6-(2,3-Dichlorobenzyl)-1-methylcarbamoylmethyl-4-oxo-1,4-dihydroquinoline-3-carboxylic acid], for which the IC50 came to 140 nM.

On to `COC(=O)Nn1cc(C(=O)O)c(=O)c2cc(Cc3cccc(Cl)c3Cl)ccc21` [Example 2-2, 6-(2,3-Dichlorobenzyl)-1-methoxycarbonylamino-4-oxo-1,4-dihydroquinoline-3-carboxylic acid], for which the IC50 was determined as 180 nM.

On to `CC(C)Cn1cc(C(=O)O)c(=O)c2cc(Cc3cccc(Cl)c3Cl)ccc21` [Example 1-18, 6-(2,3-Dichlorobenzyl)-1-isobutyl-4-oxo-1,4-dihydroquinoline-3-carboxylic acid], for which the IC50 was 120 nM.

For the compound `O=C(O)c1cn(CCO)c2ccc(Cc3cccc(Cl)c3Cl)cc2c1=O` [Example 1-63], the IC50 was 20 nM.

For the compound `CSCn1cc(C(=O)O)c(=O)c2cc(Cc3cccc(Cl)c3Cl)ccc21` [Example 1-68, 6-(2,3-Dichlorobenzyl)-1-methylsulfanylmethyl-4-oxo-1,4-dihydroquinoline-3-carboxylic acid], the IC50 came out at 49 nM.

For `O=C(O)c1cn(C(CO)CO)c2ccc(Cc3cccc(Cl)c3F)cc2c1=O` [Example 3-26, 6-(3-Chloro-2-fluorobenzyl)-1-[2-hydroxy-1-(hydroxymethyl)ethyl]-4-oxo-1,4-dihydroquinoline-3-carboxylic acid], the IC50 is 11 nM.

Turning to `CC(C)(C)n1cc(C(=O)O)c(=O)c2cc(Cc3cccc(Cl)c3F)ccc21` [Example 3-33, 1-tert-Butyl-6-(3-Chloro-2-fluorobenzyl)-4-oxo-1,4-dihydroquinoline-3-carboxylic acid], the IC50 was 8.7 nM.

Take `O=C(O)c1cn([C@H](CO)C2CCCCC2)c2ccc(Cc3cccc(Cl)c3F)cc2c1=O` [Example 4-18, (S)-6-(3-Chloro-2-fluorobenzyl)-1-(1-cyclohexyl-2-hydroxyethyl)-4-oxo-1,4-dihydroquinoline-3-carboxylic acid]: the IC50 worked out at 2 nM.

For the compound `CCOc1cc(Cc2cccc(Cl)c2F)cc2c(=O)c(C(=O)O)cn(CCO)c12` [Example 3-47, 6-(3-Chloro-2-fluorobenzyl)-8-ethoxy-1-(2-hydroxyethyl)-4-oxo-1,4-dihydroquinoline-3-carboxylic acid], the IC50 turned out to be 8.6 nM.

On to `O=C(O)c1cn(CCO)c2ccc(Cc3ccc(F)cc3Cl)cc2c1=O` [Example 1-51, 6-(2-Chloro-4-fluorobenzyl)-1-(2-hydroxyethyl)-4-oxo-1,4-dihydroquinoline-3-carboxylic acid], for which the IC50 is 180 nM.

For `O=C(O)c1cn(Cc2ccc(Cl)c(Cl)c2)c2ccc(Cc3cccc(Cl)c3Cl)cc2c1=O` [Example 1-23, 6-(2,3-dichlorobenzyl)-1-(3,4-dichlorobenzyl)-4-oxo-1,4-dihydroquinoline-3-carboxylic acid], the IC50 worked out at 190 nM.

Take `COc1c(Cc2cccc(Cl)c2Cl)ccc2c1c(=O)c(C(=O)O)cn2CCO` [Example 3-1, 6-(2,3-Dichlorobenzyl)-1-(2-hydroxyethyl)-5-methoxy-4-oxo-1,4-dihydroquinoline-3-carboxylic acid]: the IC50 is 470 nM.

Take `O=C(O)c1cn(CCO)c2ccc(Cc3ccccc3-c3ccccc3)cc2c1=O` [Example 1-86, 6-Biphenyl-2-ylmethyl-1-(2-hydroxyethyl)-4-oxo-1,4-dihydroquinoline-3-carboxylic acid]: the IC50 came to 150 nM.

With `CC(=O)Cn1cc(C(=O)O)c(=O)c2cc(Cc3cccc(Cl)c3Cl)ccc21` [Example 1-14, 6-(2,3-Dichlorobenzyl)-4-oxo-1-(2-oxopropyl)-1,4-dihydroquinoline-3-carboxylic acid], the IC50 amounted to 75 nM.
